The assay relates to intestinal brush border membrane nutrient absorption. Nature of the assay: Nutrient uptake into brush border membrane vesicles after jejunal loop treatment. Format: in vivo, New Zealand White rabbits. Here is the method:
Subsequent experiments examined the effects of EGF and an inhibitor of the EGF receptor (tyrphostin 51) on intestinal brush border membrane nutrient absorption. Tyrphostin 51is a specific inhibitor of tyrosine kinase, which is a critical element of the EGF intracellular signalling cascade. Studies were performed in New Zealand White rabbits (700-1000 g; approximately 8 weeks of age). Two 10 cm blind jejunal loops separated by a 1 cm segment were tied off starting 5 cm distal to the ligament of Treitz. In separate experiments either EGF (60 ng/ml), EGF+tyrphostin (10 μM), or tyrphostin (10 μM) alone in 1.5 ml of saline vehicle was administered to one of the loops. The other loop received vehicle alone and served as a paired control. After one hour, the loops were removed and the mucosa scraped for preparation of brush border membrane vesicles. Nutrient (D-glucose and L-proline) uptake into brush border membrane vesicles was determined by established techniques. Luminal EGF stimulated a significant increase (p<0.001) in brush border membrane glucose (EGF 16.1±1.0 vs CONTROL 11.5±0.9 nmol/min/mg protein; n=5) and proline (EGF 3.8±0.5 vs CONTROL 2.6±0.3 nmol/min/mg protein; n=5) transport compared to controls. […] Subsequently, a further series of experiments examined the effect of tyrphostin alone on brush border glucose transport. […]

The results in this text go back to patent US6656907B1, “Method of treating gastric ulcer by administration of epidermal growth factor” (University Technologies International Inc., priority 1995, dated 2003).

Take `N#CC(C#N)=C(N)/C(C#N)=C/c1cc(O)c(O)c(O)c1` [TYR, tyrphostin 51, reference compound]: the “effect on EGF-induced increase in glucose uptake” value (concurrent tyrphostin 10 μM with EGF 60 ng/ml) is recorded as “completely blocked”. In addition, the “brush border membrane glucose uptake” value (tyrphostin 10 μM alone, one hour, n=4, control 10.7±1.0) came to 8.0±0.8 nmol/min/mg protein.
